In ChEMBL document CHEMBL1201862, “PubChem BioAssay data set” (2004):
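Protocol summary: plate cells (96-well), add compound at 5 concentrations, incubate 48 h, interpolate endpoints linearly. GI50 is the concentration that inhibits growth by half.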 Activity calls are given as the source filed them. Cut-off read from the data, not from the text of the source: active = GI50 up to about 1.1 µM and inactive = higher.

What was measured:
Test in all cases: NCI tumour cell line growth inhibition, 48 h
[1] = system: OVCAR-4
[2] = system: SR
[3] = system: RPMI-8226
[4] = system: MCF7
[5] = system: SK-OV-3
[6] = system: SK-MEL-28
[7] = system: ACHN
[8] = system: NCI-H460
[9] = system: SK-MEL-2
[10] = system: SF-268
[11] = system: T47D
[12] = system: NCI-H23
[13] = system: A549
[14] = system: OVCAR-5
[15] = system: SW-620
[16] = system: RXF 393
[17] = system: SNB-75
[18] = system: 786-0
[19] = system: U-251
[20] = system: HOP-62
[21] = system: NCI/ADR-RES
[22] = system: CAKI-1
[23] = system: SK-MEL-5
[24] = system: K562
[25] = system: HCC 2998
[26] = system: KM12
[27] = system: M14
[28] = system: CCRF-CEM
[29] = system: SN12C
[30] = system: SF-295
[31] = system: NCI-H522
[32] = system: HL-60
[33] = system: OVCAR-3
[34] = system: A498
[35] = system: MDA-MB-231
[36] = system: TK-10
[37] = system: DU-145
[38] = system: LOX IMVI
[39] = system: UACC-62
[40] = system: EKVX
[41] = system: SNB-19
[42] = system: MDA-MB-435
[43] = system: UACC-257
[44] = system: HCT-15
[45] = system: OVCAR-8
[46] = system: HT-29
[47] = system: COLO 205
[48] = system: Hs-578T
[49] = system: MOLT-4
[50] = system: SF-539
[51] = system: PC-3
[52] = system: HCT-116
[53] = system: Malme-3M
[54] = system: NCI-H226
[55] = system: IGROV-1
[56] = system: HOP-92
[57] = system: MDA-N

O=CC(O)C(O)C(O)C(O)COP(=O)(O)Cc1ccccc1 (stereo unspecified)
GI50 [1]: > 10 µM (inactive)
GI50 [2]: > 10 µM (inactive)
GI50 [3]: > 10 µM (inactive)
GI50 [4]: > 10 µM (inactive)
GI50 [5]: > 10 µM (inactive)
GI50 [6]: > 10 µM (inactive)
GI50 [7]: > 10 µM (inactive)
GI50 [8]: > 10 µM (inactive)
GI50 [9]: > 10 µM (inactive)
GI50 [10]: > 10 µM (inactive)
GI50 [11]: > 10 µM (inactive)
GI50 [12]: > 10 µM (inactive)
GI50 [13]: > 10 µM (inactive)
GI50 [14]: > 10 µM (inactive)
GI50 [15]: > 10 µM (inactive)
GI50 [16]: > 10 µM (inactive)
GI50 [17]: > 10 µM (inactive)
GI50 [18]: > 10 µM (inactive)
GI50 [19]: > 10 µM (inactive)
GI50 [20]: > 10 µM (inactive)
GI50 [21]: > 10 µM (inactive)
GI50 [22]: > 10 µM (inactive)
GI50 [23]: > 10 µM (inactive)
GI50 [24]: > 10 µM (inactive)

Fc1c(F)c(F)c2c(c1F)CSc1nc3ccccc3n1-2
GI50 [25]: > 100 µM (inactive)
GI50 [26]: > 100 µM (inactive)
GI50 [1]: > 100 µM (inactive)
GI50 [27]: > 100 µM (inactive)
GI50 [28]: > 100 µM (inactive)
GI50 [2]: > 100 µM (inactive)
GI50 [3]: > 100 µM (inactive)
GI50 [4]: > 100 µM (inactive)
GI50 [29]: > 100 µM (inactive)
GI50 [5]: > 100 µM (inactive)
GI50 [30]: > 100 µM (inactive)
GI50 [6]: > 100 µM (inactive)
GI50 [7]: > 100 µM (inactive)
GI50 [8]: > 100 µM (inactive)
GI50 [31]: > 100 µM (inactive)
GI50 [9]: > 100 µM (inactive)
GI50 [32]: > 100 µM (inactive)
GI50 [33]: > 100 µM (inactive)
GI50 [34]: > 100 µM (inactive)
GI50 [35]: > 100 µM (inactive)
GI50 [10]: > 100 µM (inactive)
GI50 [36]: > 100 µM (inactive)
GI50 [37]: > 100 µM (inactive)
GI50 [38]: > 100 µM (inactive)
GI50 [11]: > 100 µM (inactive)
GI50 [39]: > 100 µM (inactive)
GI50 [12]: > 100 µM (inactive)
GI50 [40]: 5.16 µM (inactive)
GI50 [41]: > 100 µM (inactive)
GI50 [42]: > 100 µM (inactive)
GI50 [13]: > 100 µM (inactive)
GI50 [43]: > 100 µM (inactive)
GI50 [44]: > 100 µM
GI50 [14]: > 100 µM (inactive)
GI50 [15]: > 100 µM (inactive)
GI50 [16]: > 100 µM (inactive)
GI50 [45]: > 100 µM (inactive)
GI50 [46]: > 100 µM (inactive)
GI50 [47]: > 100 µM (inactive)
GI50 [48]: > 100 µM (inactive)
GI50 [17]: > 100 µM (inactive)
GI50 [18]: > 100 µM (inactive)
GI50 [49]: > 100 µM (inactive)
GI50 [50]: > 100 µM (inactive)
GI50 [19]: > 100 µM (inactive)
GI50 [51]: > 100 µM (inactive)
GI50 [20]: > 100 µM (inactive)
GI50 [52]: > 100 µM (inactive)
GI50 [21]: > 100 µM (inactive)
GI50 [22]: > 100 µM (inactive)
GI50 [23]: > 100 µM (inactive)
GI50 [53]: > 100 µM (inactive)
GI50 [54]: > 100 µM (inactive)
GI50 [55]: > 100 µM (inactive)
GI50 [24]: > 100 µM (inactive)
GI50 [56]: > 100 µM (inactive)

CCC1(c2ccccc2)Sc2ccccc2-n2cccc2C1=O (stereo unspecified)
GI50 [25]: > 10 µM (inactive)
GI50 [26]: 7.8 µM (inactive)
GI50 [27]: > 10 µM (inactive)
GI50 [28]: > 10 µM (inactive)
GI50 [2]: 3.79 µM (inactive)
GI50 [3]: 4.32 µM (inactive)
GI50 [4]: > 10 µM (inactive)
GI50 [29]: > 10 µM (inactive)
GI50 [5]: > 10 µM (inactive)
GI50 [30]: > 10 µM (inactive)
GI50 [6]: > 10 µM (inactive)
GI50 [57]: 3.5 µM (inactive)
GI50 [32]: 4.12 µM (inactive)
GI50 [35]: 9.31 µM (inactive)
GI50 [36]: > 10 µM (inactive)
GI50 [37]: > 10 µM (inactive)
GI50 [11]: > 10 µM (inactive)
GI50 [39]: > 10 µM (inactive)
GI50 [12]: > 10 µM (inactive)
GI50 [40]: > 10 µM (inactive)
GI50 [13]: > 10 µM (inactive)
GI50 [43]: > 10 µM (inactive)
GI50 [44]: 8.79 µM
GI50 [15]: > 10 µM (inactive)
GI50 [16]: 9.79 µM (inactive)
GI50 [45]: > 10 µM (inactive)
GI50 [46]: 9.62 µM (inactive)
GI50 [47]: > 10 µM (inactive)
GI50 [17]: > 10 µM (inactive)
GI50 [18]: > 10 µM (inactive)
GI50 [49]: 5.37 µM (inactive)
GI50 [51]: 8.53 µM (inactive)
GI50 [20]: > 10 µM (inactive)
GI50 [22]: > 10 µM (inactive)
GI50 [23]: > 10 µM (inactive)
GI50 [53]: 8.34 µM (inactive)
GI50 [55]: > 10 µM (inactive)
GI50 [24]: 4.6 µM (inactive)

CN(NC(=O)CC(=O)NN(C)C(=S)c1ccccc1)C(=S)c1ccccc1 [ELESCLOMOL]
GI50 [25]: 64.7 µM (inactive)
GI50 [2]: 28.3 µM (inactive)
GI50 [3]: < 0.01 µM (active)
GI50 [5]: > 100 µM (inactive)
GI50 [30]: 46 µM (inactive)
GI50 [57]: > 100 µM (inactive)
GI50 [33]: > 100 µM (inactive)
GI50 [36]: > 100 µM (inactive)
GI50 [38]: 35.4 µM (inactive)
GI50 [39]: 50.2 µM (inactive)
GI50 [40]: 33.9 µM (inactive)
GI50 [41]: 84.7 µM (inactive)
GI50 [14]: > 100 µM (inactive)
GI50 [15]: 67 µM (inactive)
GI50 [46]: < 0.01 µM (active)
GI50 [50]: > 100 µM (inactive)
GI50 [52]: 62.1 µM (inactive)
GI50 [54]: 83.8 µM (inactive)
GI50 [55]: > 100 µM (inactive)
GI50 [56]: > 100 µM (inactive)

COc1ccc2cc1Oc1ccc(cc1)C[C@@H]1c3cc(c(OC)cc3CCN1C)Oc1c(OC)c(OC)cc3c1[C@H](C2)N(C)CC3 [ISOTETRANDRINE]
GI50 [25]: 12.7 µM (inactive)
GI50 [1]: 17.9 µM (inactive)
GI50 [27]: 11.1 µM (inactive)
GI50 [28]: 16.9 µM (inactive)
GI50 [2]: 2.41 µM (inactive)
GI50 [4]: 14 µM (inactive)
GI50 [5]: 40.2 µM (inactive)
GI50 [30]: 16.3 µM (inactive)
GI50 [7]: 13.4 µM (inactive)
GI50 [8]: 15.2 µM (inactive)
GI50 [31]: 12.6 µM (inactive)
GI50 [32]: 10.8 µM (inactive)
GI50 [33]: 18.2 µM (inactive)
GI50 [34]: 19.7 µM (inactive)
GI50 [35]: 14.7 µM (inactive)
GI50 [10]: 21.7 µM (inactive)
GI50 [36]: 19.1 µM (inactive)
GI50 [12]: 15.8 µM (inactive)
GI50 [41]: 20.4 µM (inactive)
GI50 [43]: 11.3 µM (inactive)
GI50 [44]: 11.2 µM
GI50 [16]: 1.44 µM (inactive)
GI50 [45]: 17.9 µM (inactive)
GI50 [48]: 16.7 µM (inactive)
GI50 [17]: 12.4 µM (inactive)
GI50 [18]: 24.7 µM (inactive)
GI50 [50]: 8.89 µM (inactive)
GI50 [19]: 22.2 µM (inactive)
GI50 [52]: 17.7 µM (inactive)
GI50 [23]: 11.8 µM (inactive)
GI50 [55]: 20.7 µM (inactive)
GI50 [24]: 4.16 µM (inactive)
GI50 [56]: > 10 µM (inactive)
